We go through 28 compounds from patent publication US8232274B2, “Pyridazinone derivatives useful as glucan synthase inhibitors” (Albany Molecular Research, Inc., priority 2007, dated 2012).

The target of test [1] is T1, glucan synthase (Saccharomyces cerevisiae, UniProt P38631).
T1 construct: glucan synthase sources (2 μL permeabilized PM503 cells, or 3 μL membrane preparations from either PM503, BWP17, or ND158); endogenous in cells; host or cells: S. cerevisiae strain PM503, permeabilized cells or 100,000 g membrane fraction
The experiment in a line: β(1,3) glucan synthase assay, S. cerevisiae PM503 permeabilized cells or membrane preparation (IC50). It counts as biochemical. On the procedure:
(§1) β(1,3) Glucan Synthase Assay:
1. Preparation of Permeabilized Saccharomyces cerevisiae Cells.
Permeabilization of yeast cells was performed according to Crotti et al. (Analytical Biochemistry, 292, 8-16, 2001) with some modifications. A 10 ml-starter culture of the S. cerevisiae strain in YPD medium (1% yeast extract, 2% bacto-peptone, 2% dextrose) with OD600=3-4 was used to inoculate 1 liter of YPD. The culture was grown at 30° C. until […]. Cells were collected by centrifugation (5,300 g for 15 min at 4° C.) and resuspended in buffer (40 mM EDTA, 100 mM β-mercaptoethanol) at 1 g of cell pellet/3.5 ml buffer. The cell suspension was shaken for 30 min at 30° C., followed by centrifugation at 12,000 g for 10 min at 4° C. The cell pellet was washed with 5 ml 0.8 M sorbitol and resuspended in 6.8 ml of 2.9 mM citric acid, 11.3 mM dibasic sodium phosphate, 1 mM EDTA, 0.8 M sorbitol, with constant shaking at 30)C for 30 min. After centrifugation at 12,000 g for […] at 4° C., the pellet was resuspended in 31.3 ml 50 mM Tris-HCl, pH 7.0, and incubated on ice for 5 min. The mixture was then centrifuged at 12,000 g for 10 min at 4 AC, and the pellet was resuspended in 1 ml of 50 mM Tris-HCl and 33% glycerol, pH 7.5. The permeabilized cell preparation was stored at […] in aliquots.
(§2) 2. Preparation of Membrane Fraction of Yeast Cells
(§3) The protocol was modified from Douglas et al. (Journal of Bacteriology, 176, 5686-5696, 1994). For the preparation of S. cerevisiae and C. albicans membrane fractions, 1 liter of YPD supplemented with 0.02 mg/mL adenine and 0.08 mg/mL uracil was inoculated with 10 mL starter culture of PM503 (OD600=4) or the C. albicans strain BWP17 (OD600=12) in the same medium and grown at 30° C. until OD600 reached about 1. A. fumigatus (stain ND158) membranes were prepared by first preparing a spore suspension from agar slants by adding 6 mL of sterile saline, 0.1% Tween-20 solution to each slant, and resuspending by pipetting and scraping. The spore suspensions were used to inoculate two 200 mL flasks containing Sabouraud dextrose broth media. Cultures were incubated at 37° C., 250 rpm for ˜8 hrs. All cells, S. cerevisiae, C. albicans or A. fumigatus were harvested by centrifugation at 5,300 g at 4° C. for 40 minutes. After washing with 100 mL of breakage buffer (0.1 M KPi, pH 7.0, 1 mM EDTA, 1 mM DTT), the cell pellet was resuspended in 50 ml ice-cold breakage buffer. The mixture was transferred to a bead-beater chamber packed in ice (BioSpec Products, Bartlesville, Okla.). To each 50 mL sample was added 50 g of acid-washed glass beads ([…], Sigma). Cells were disrupted using 12×20 second pulses with 2 min-cooling intervals. Cell debris was removed by centrifugation at 3,000 g for 20 minutes at 4° C., and the supernatant was collected and centrifuged at 100,000 g for 1 hour at 4° C. to pellet the membrane fraction. The pellet was resuspended in 5 mL of ice-cold breakage buffer containing 25% glycerol, homogenized with a Dounce tissue homogenizer and stored at −80° C. in small aliquots.
(§4) 3. Glucan Synthase Assay and Compound Screening
The assay was performed according to Mo et at (Journal of Biological Chemistry, 269, 31267-31274, 1994) and Taft et al. (The Journal of Antibiotics, 47, 1001-1009, 1994), in a 96-well Optiplate (PerkinElmer). To each well was added 3 μL 10× compound stock (in 100% DMSO), or 3 μL of 30 μg/mL caspofungin in 100% DMSO (as positive control), or 3 μL 100% DMSO (as negative control), followed by the addition of appropriate amount of glucan synthase sources (2 μL permeabilized PM503 cells, or 3 μL membrane preparations from either PM503, BWP17, or ND158). The reaction was initiated by adding 25 μL reaction buffer (0.6 mM UDP-Glucose 0.6 nCi [U-^14C]DUP-Glucose (327 mCi/mmol, Amersham Bioscience), 20 μM GTP-γ-S, 25 mM NaF, 7.5 mg/mL BSA, 8% glycerol in 75 mM Tris-HCl, pH 7.5). […]

Test [2] has as its target T2, glucan synthase (Candida albicans, UniProt O13428).
T2 construct: glucan synthase sources (2 μL permeabilized PM503 cells, or 3 μL membrane preparations from either PM503, BWP17, or ND158); endogenous in cells; host or cells: C. albicans strain BWP17, 100,000 g membrane fraction
The test can be described thus: β(1,3) glucan synthase assay, C. albicans BWP17 membrane preparation (IC50). It counts as biochemical. Particulars: in vitro fungal enzyme activity assay, read-out: IC50 (μg/mL) Candida albicans (converted). On the procedure: as §1, §2, §3, §4
The assay was performed according to Mo et at (Journal of Biological Chemistry, 269, 31267-31274, 1994) and Taft et al. (The Journal of Antibiotics, 47, 1001-1009, 1994), in a 96-well Optiplate (PerkinElmer). To each well was added 3 μL 10× compound stock (in 100% DMSO), or 3 μL of 30 μg/mL caspofungin in 100% DMSO (as positive control), or 3 μL 100% DMSO (as negative control), followed by the addition of appropriate amount of glucan synthase sources (2 μL permeabilized PM503 cells, or 3 μL membrane preparations from either PM503, BWP17, or ND158). The reaction was initiated by adding 25 μL reaction buffer (0.6 mM UDP-Glucose 0.6 nCi [U-^14C]DUP-Glucose (327 mCi/mmol, Amersham Bioscience), 20 μM GTP-γ-S, 25 mM NaF, 7.5 mg/mL BSA, 8% glycerol in 75 mM Tris-HCl, pH 7.5). The plate was incubated on a shaker for 1.5 hour at room temperature before being quenched with 250 μL 1% TCA (Trichloroacetic Acid). The quenched reaction was mixed by pipetting, and immediately transferred to a 96-well filter plate (Glass fiber B on 0.65 μm hydrophilic durapore membrane, Millipore) pre-wetted with wash buffer (5% TCA, 60 mM NaPPi). The glucan product was retained on the filter membrane by applying vacuum to the plate using a MultiScreen Resist Vacuum Manifold (Millipore). The filter plate was further washed 4 times with 200 μL wash buffer. The plate was dried at 50° C. for 30 minutes. 100 μL of Microscint-0 (PerkinElmer) was added to each well, and plate was counted in a TopCount NXT plate reader (PerkinElmer).
Dose-response curves were plotted from inhibition data generated. IC50 was determined by fitting the CPM versus the Concentration of the test compound plot with the following equation (4-parameter logistic model, ID Business Solutions XLfit 4.2).

T1 sequence (P06780 1-206): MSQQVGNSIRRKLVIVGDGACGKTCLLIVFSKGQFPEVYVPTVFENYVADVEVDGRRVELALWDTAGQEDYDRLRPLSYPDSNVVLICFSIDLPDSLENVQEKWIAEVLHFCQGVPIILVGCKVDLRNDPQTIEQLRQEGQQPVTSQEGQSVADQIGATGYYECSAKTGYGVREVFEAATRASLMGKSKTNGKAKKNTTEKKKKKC
T1 sequence (P38631 whole entry): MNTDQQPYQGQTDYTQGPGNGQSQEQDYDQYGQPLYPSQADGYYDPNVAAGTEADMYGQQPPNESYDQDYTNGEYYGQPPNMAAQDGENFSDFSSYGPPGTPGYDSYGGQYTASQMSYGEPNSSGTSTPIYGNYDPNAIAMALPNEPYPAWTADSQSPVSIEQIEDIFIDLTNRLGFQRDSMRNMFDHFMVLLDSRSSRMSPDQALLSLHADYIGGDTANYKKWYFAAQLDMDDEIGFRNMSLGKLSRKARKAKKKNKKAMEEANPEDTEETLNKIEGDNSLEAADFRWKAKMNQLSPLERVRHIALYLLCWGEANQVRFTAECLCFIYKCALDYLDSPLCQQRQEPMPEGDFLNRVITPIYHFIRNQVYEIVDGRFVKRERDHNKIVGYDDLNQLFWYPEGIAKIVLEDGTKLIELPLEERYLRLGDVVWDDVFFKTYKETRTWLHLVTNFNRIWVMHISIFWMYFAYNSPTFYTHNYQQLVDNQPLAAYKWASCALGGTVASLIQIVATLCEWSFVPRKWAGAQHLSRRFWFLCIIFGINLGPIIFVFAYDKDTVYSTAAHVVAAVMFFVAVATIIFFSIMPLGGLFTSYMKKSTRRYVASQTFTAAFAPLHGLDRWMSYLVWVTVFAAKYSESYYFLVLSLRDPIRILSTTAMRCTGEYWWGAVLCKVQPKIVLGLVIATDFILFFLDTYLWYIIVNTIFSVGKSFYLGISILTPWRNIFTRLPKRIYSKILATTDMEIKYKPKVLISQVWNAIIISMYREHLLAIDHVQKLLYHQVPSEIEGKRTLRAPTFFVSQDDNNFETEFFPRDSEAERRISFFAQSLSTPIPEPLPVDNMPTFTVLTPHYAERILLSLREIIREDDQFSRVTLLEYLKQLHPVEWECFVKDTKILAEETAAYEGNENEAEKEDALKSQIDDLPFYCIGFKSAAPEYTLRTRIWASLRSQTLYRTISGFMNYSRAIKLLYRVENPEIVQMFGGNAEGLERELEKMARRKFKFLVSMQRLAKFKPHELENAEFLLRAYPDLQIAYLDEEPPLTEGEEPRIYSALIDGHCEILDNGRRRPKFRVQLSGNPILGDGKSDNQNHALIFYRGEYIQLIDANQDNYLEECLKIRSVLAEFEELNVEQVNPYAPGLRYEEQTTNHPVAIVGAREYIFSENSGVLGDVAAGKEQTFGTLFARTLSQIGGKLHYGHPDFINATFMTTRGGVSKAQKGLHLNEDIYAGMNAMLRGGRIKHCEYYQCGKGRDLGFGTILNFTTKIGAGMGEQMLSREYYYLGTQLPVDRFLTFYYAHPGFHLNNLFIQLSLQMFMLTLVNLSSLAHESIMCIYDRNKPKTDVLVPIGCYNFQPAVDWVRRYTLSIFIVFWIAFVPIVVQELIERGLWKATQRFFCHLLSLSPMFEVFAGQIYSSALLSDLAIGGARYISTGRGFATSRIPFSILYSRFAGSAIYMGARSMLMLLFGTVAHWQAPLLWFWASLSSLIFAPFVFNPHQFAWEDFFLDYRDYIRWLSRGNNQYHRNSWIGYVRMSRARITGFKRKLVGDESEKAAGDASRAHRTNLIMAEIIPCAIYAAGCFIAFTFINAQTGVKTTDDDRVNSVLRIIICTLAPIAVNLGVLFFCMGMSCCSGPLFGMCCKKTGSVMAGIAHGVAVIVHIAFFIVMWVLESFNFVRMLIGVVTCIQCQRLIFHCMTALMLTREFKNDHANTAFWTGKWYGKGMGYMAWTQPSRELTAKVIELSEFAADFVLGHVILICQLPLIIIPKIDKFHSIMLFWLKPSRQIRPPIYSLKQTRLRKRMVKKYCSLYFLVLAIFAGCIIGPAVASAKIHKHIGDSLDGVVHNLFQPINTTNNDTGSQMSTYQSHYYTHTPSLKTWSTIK
T2 sequence (O13428 1-1897): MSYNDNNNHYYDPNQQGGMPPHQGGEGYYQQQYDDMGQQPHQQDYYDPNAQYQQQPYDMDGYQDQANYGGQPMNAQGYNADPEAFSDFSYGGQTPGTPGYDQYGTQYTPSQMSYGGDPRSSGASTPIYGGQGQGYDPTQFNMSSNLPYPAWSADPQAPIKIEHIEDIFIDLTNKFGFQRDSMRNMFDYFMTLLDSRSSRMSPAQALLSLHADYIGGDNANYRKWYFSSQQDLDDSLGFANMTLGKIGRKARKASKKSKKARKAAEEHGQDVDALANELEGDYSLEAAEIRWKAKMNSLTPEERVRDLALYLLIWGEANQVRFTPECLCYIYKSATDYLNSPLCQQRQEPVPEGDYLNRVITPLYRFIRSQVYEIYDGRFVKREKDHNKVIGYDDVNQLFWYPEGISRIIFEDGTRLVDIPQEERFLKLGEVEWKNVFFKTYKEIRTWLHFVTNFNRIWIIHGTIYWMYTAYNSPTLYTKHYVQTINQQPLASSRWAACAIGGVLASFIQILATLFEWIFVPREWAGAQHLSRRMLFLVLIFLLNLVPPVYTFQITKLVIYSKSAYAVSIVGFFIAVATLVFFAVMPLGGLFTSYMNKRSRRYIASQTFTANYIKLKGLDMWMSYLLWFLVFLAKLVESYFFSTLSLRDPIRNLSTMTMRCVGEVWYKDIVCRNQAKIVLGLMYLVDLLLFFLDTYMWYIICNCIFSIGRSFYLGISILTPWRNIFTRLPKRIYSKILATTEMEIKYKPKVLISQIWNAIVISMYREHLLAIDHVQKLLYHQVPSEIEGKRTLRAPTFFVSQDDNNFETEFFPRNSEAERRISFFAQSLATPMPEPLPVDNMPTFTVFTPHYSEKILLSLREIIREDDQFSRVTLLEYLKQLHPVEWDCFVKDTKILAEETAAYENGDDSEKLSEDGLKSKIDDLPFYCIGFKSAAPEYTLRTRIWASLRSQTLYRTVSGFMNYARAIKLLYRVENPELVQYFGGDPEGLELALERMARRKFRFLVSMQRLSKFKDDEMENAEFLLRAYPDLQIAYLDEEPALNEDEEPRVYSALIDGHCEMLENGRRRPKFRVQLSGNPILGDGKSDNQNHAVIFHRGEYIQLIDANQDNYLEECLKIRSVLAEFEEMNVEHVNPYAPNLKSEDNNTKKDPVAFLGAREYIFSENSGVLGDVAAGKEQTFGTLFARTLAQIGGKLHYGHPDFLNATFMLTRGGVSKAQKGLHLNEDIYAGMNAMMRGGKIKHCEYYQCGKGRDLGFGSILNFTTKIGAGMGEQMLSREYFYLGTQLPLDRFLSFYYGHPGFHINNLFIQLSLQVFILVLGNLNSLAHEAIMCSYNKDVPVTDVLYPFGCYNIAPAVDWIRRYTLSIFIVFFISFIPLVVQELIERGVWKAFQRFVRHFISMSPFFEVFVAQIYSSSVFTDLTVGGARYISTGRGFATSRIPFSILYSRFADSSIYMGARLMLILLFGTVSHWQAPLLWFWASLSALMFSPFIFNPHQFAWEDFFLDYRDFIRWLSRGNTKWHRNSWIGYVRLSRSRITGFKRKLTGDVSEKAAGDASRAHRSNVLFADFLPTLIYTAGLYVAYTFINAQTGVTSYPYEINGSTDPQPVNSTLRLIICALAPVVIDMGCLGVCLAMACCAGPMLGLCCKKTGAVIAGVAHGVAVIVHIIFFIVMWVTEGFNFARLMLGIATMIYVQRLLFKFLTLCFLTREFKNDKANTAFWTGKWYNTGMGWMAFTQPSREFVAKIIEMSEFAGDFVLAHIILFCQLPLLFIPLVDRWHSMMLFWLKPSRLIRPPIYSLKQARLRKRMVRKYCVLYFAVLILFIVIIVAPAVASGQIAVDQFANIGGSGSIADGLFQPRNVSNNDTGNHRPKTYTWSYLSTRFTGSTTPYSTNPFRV
T2 sequence (O42825 1-195 partner limits assumed): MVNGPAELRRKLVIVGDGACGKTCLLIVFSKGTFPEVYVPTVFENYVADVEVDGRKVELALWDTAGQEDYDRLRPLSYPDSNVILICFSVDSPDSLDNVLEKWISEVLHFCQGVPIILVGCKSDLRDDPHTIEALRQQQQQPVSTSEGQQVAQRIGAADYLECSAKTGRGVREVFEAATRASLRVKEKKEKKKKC

On to `O=c1c(OC2CCCC2)c(N2CCN(Cc3c(Cl)cccc3Cl)CC2)cnn1-c1cccc(Cl)c1` [208Z], for which the IC50 was 206 nM against glucan synthase [1] and 2620 nM at glucan synthase [2].

With `Nc1ccc(CS(=O)(=O)N2CCN(c3cnn(-c4cccc(Cl)c4)c(=O)c3OCC3(CF)CC3)CC2)cc1` [809Z], the IC50 at glucan synthase [1] is 71.2 nM; at glucan synthase [2] it was 196 nM.

In the case of `COc1ccc(CS(=O)(=O)N2CCN(c3cnn(-c4cc(F)cc(F)c4)c(=O)c3OCC3(C)CC3)CC2)cc1N` [1864Z], the values for the IC50 against glucan synthase [1] and on glucan synthase [2] were 104 nM and 86.9 nM, respectively.

Consider `CC1(COc2c(N3CCN(S(=O)(=O)Cc4ccc5ocnc5c4)CC3)cnn(-c3cc(F)cc(F)c3)c2=O)CC1` [270*], for which the IC50 was 52.5 nM at glucan synthase [1] and 35 nM on glucan synthase [2].

For the compound `CC(C)NC(=O)N1CCN(c2cnn(-c3cccc(F)c3)c(=O)c2OC2Cc3ccccc3C2)CC1` [197Z], the IC50 was 159 nM against glucan synthase [1] and 3870 nM at glucan synthase [2].

Regarding `Cc1ccc(CNS(=O)(=O)N2CCN(c3cnn(-c4cc(F)cc(F)c4)c(=O)c3OC3CCC(F)C3)CC2)cc1N` (centres unmarked) [1715Z], the IC50 was 169 nM against glucan synthase [1] and 523 nM on glucan synthase [2].

With `CC1CCC(Oc2c(N3CCN(S(=O)(=O)Cc4cccc(N)c4)CC3)cnn(-c3ccccc3)c2=O)C1` (centres unmarked) [1529Z-70], the IC50 at glucan synthase [1] is 134 nM; at glucan synthase [2], 153 nM.

As for `CC1(COc2c(N3CCN(S(=O)(=O)Cc4ccc(N)c(Cl)c4)CC3)cnn(-c3cc(F)cc(F)c3)c2=O)CC1` [Compound 1574Zo], the IC50 was 51.7 nM against glucan synthase [1] and 69 nM on glucan synthase [2].

In the case of `CNc1cccc(CS(=O)(=O)N2CCN(c3cnn(-c4cccc(Cl)c4)c(=O)c3OCC3(C)CC3)CC2)c1` [1969Z], the IC50 at glucan synthase [1] and at glucan synthase [2] was 215 nM throughout.

For the compound `CC1(COc2c(N3CCN(S(=O)(=O)Cc4ccc(N)cc4)CC3)cnn(-c3cccc(Cl)c3)c2=O)CC1` [745Z], the IC50 at glucan synthase [1] was 73.5 nM; at glucan synthase [2], 110 nM.

For the compound `CC(C)(C)COc1c(N2CCN(S(=O)(=O)Cc3ccc(N)cc3)CC2)cnn(-c2cc(F)cc(F)c2)c1=O` [1529Z-174], the IC50 against glucan synthase [1] was 128 nM; on glucan synthase [2], 183 nM.

On to `CCCCCCCCCC(=O)N1CCN(c2cnn(-c3ccccc3)c(=O)c2OCCCCCCC)CC1` [232Z], for which the IC50 at glucan synthase [1] is 3810 nM; at glucan synthase [2], 15600 nM.

On to `CC1(COc2c(N3CCN(S(=O)(=O)NCc4ccc(N)c(F)c4)CC3)cnn(-c3cccc(Cl)c3)c2=O)CC1` [1712Z], for which the IC50 against glucan synthase [1] is 139 nM; at glucan synthase [2] it was 104 nM.

As for `CCCCCCCSc1c(N2CCN(S(=O)(=O)Cc3ccccc3)CC2)cnn(-c2ccccc2)c1=O` [7Z], the IC50 at glucan synthase [1] was 629 nM; at glucan synthase [2] it was 2030 nM.

In the case of `CCC1(COc2c(N3CCN(S(=O)(=O)Cc4ccc(N)cc4)CC3)cnn(-c3cc(F)cc(F)c3)c2=O)CC1` [186*], the IC50 at glucan synthase [1] is 89.3 nM; at glucan synthase [2], 214 nM.

As for `CC(Oc1c(N2CCN(S(=O)(=O)Cc3cccc(N)c3)CC2)cnn(-c2cc(F)cc(F)c2)c1=O)C(C)(C)C` (centres unmarked) [971Zbb], the IC50 at glucan synthase [1] is 588 nM; on glucan synthase [2] it was 2850 nM.

Take `CC1(COc2c(N3CCN(S(=O)(=O)NCc4ccc(F)cc4)CC3)cnn(-c3cc(F)cc(F)c3)c2=O)CC1` [1734Z]: the IC50 against glucan synthase [1] was 106 nM; at glucan synthase [2] it was 231 nM.

Regarding `CC1(COc2c(N3CCN(S(=O)(=O)Cc4ccc(N)cc4)CC3)cnn(-c3cc(F)cc(F)c3)c2=O)CC1` [767Z], the IC50 was 91.6 nM at glucan synthase [1] and 238 nM on glucan synthase [2].

With `O=c1c(OC2Cc3ccccc3CC2F)c(N2CCN(S(=O)(=O)CF)CC2)cnn1-c1cc(F)cc(F)c1` (centres unmarked) [1267Z], the IC50 on glucan synthase [1] is 199 nM; on glucan synthase [2], 633 nM.

Regarding `CC(C)S(=O)(=O)N1CCN(c2cnn(-c3cccc(F)c3)c(=O)c2OC2CCCCC2)CC1` [402Z], the values for the IC50 against glucan synthase [1] and on glucan synthase [2] were 153 nM and 794 nM, respectively.

Take `N#Cc1cccc(-c2c(N3CCN(S(=O)(=O)Cc4ccccc4)CC3)cnn(-c3cc(F)cc(F)c3)c2=O)c1` [82Z]: the IC50 on glucan synthase [1] is 87.7 nM; at glucan synthase [2], 822 nM.

On to `O=c1c(OC2CCCC2)c(N2CCN(S(=O)(=O)NCc3ccccc3)CC2)cnn1-c1cc(F)cc(F)c1` [1629Z], for which the IC50 at glucan synthase [1] was 36.7 nM; on glucan synthase [2] it was 91.6 nM.

For the compound `CCOCCOc1c(N2CCN(Cc3c(Cl)cccc3Cl)CC2)cnn(-c2cc(Cl)cc(Cl)c2)c1=O` [214Z], the results for the IC50 against glucan synthase [1] and at glucan synthase [2] were 1310 nM and 489 nM, respectively.

As for `O=c1c(OCC2CC2(F)F)c(N2CCN(S(=O)(=O)Cc3ccccc3)CC2)cnn1-c1cc(F)cc(F)c1` (centres unmarked) [1529Z-180], the values for the IC50 on glucan synthase [1] and at glucan synthase [2] were 1.81 nM and 5.43 nM, respectively.

For `CC1(COc2c(N3CCN(S(=O)(=O)Cc4cccc(N)c4)CC3)cnn(-c3cccc(Cl)c3)c2=O)CC1` [755Z], the IC50 against glucan synthase [1] was 91.9 nM; at glucan synthase [2], 73.5 nM.

`COc1ccc(CNS(=O)(=O)N2CCN(c3cnn(-c4cc(F)cc(F)c4)c(=O)c3OCC3(C)CC3)CC2)cc1` [1633Z]: the IC50 was 139 nM against glucan synthase [1] and 86.9 nM on glucan synthase [2].

Take `CC(C)(C)COc1c(N2CCN(S(=O)(=O)Cc3cccc(N)c3)CC2)cnn(-c2cccc(Cl)c2)c1=O` [1529Z-151]: the results for the IC50 on glucan synthase [1] and on glucan synthase [2] were 128 nM and 165 nM, respectively.

On to `CC1(COc2c(N3CCN(S(=O)(=O)Cc4cccc(N)c4)CC3)cnn(-c3cc(F)cc(F)c3)c2=O)CC1` [1529Z-40], for which the IC50 on glucan synthase [1] and on glucan synthase [2] was 55 nM in each case.
